The assay relates to HBV rcDNA in HepDE19 cells. In words: HepDE19 assay with bDNA quantitation of HBV rcDNA. It is filed as cell-based, hepatitis B virus. The note with it: Hepatitis B virus, HepDE19, HepDE19 assay, inhibition of rcDNA formation, bDNA quantitation; read-out: DE-19bDNA EC50.
Turning to `CN(C(=O)c1cc2ccnc(Cl)c2[nH]1)[C@@H]1COCc2[nH]c(=O)c3cc(F)c(F)cc3c21` [Compound 371, (S)-7-Chloro-N-(8,9-difluoro-6-oxo-1,4,5,6-tetrahydro-2H-pyrano[3,4-c]isoquinolin-1-yl)-N-methyl-1H-pyrrolo[2,3-c]pyridine-2-carboxamide], the EC50 (in general, the concentration at which the effect is half-maximal) amounted to 140 nM.
For `CN(C(=O)c1cc2c(Cl)nccc2[nH]1)[C@@H]1COCc2[nH]c(=O)c3cc(F)c(F)cc3c21` [Compound 372, (S)-4-Chloro-N-(8,9-difluoro-6-oxo-1,4,5,6-tetrahydro-2H-pyrano[3,4-c]isoquinolin-1-yl)-N-methyl-1H-pyrrolo[3,2-c]pyridine-2-carboxamide] the value was 20 nM.
Then `CN(C(=O)c1ccn2c(Cl)ccc2c1)[C@@H]1COCc2[nH]c(=O)c3cc(F)c(F)cc3c21` [Compound 373, (S)-3-Chloro-N-(8,9-difluoro-6-oxo-1,4,5,6-tetrahydro-2H-pyrano[3,4-c]isoquinolin-1-yl)-N-methylindolizine-7-carboxamide], with 10 nM; and `CN(C(=O)c1cc2cc(C(F)F)ccn2c1)[C@@H]1COCc2[nH]c(=O)c3cc(F)c(F)cc3c21` [Compound 374, (S)-N-(8,9-Difluoro-6-oxo-1,4,5,6-tetrahydro-2H-pyrano[3,4-c]isoquinolin-1-yl)-7-(difluoromethyl)-N-methylindolizine-2-carboxamide], with 24000 nM.
With `CN(C(=O)c1cc2ccc(C(F)F)cn2c1)[C@@H]1COCc2[nH]c(=O)c3cc(F)c(F)cc3c21` [Compound 375, (S)-N-(8,9-Difluoro-6-oxo-1,4,5,6-tetrahydro-2H-pyrano[3,4-c]isoquinolin-1-yl)-6-(difluoromethyl)-N-methylindolizine-2-carboxamide], the EC50 was 330 nM.
Then `CN(C(=O)c1cc2cc(F)c(F)cc2n1COP(=O)(OC(C)(C)C)OC(C)(C)C)[C@@H]1COCc2[nH]c(=O)c3cc(F)c(F)cc3c21` [Compound 376, (S)-di-tert-Butyl ((2-((8,9-difluoro-6-oxo-1,4,5,6-tetrahydro-2H-pyrano[3,4-c]isoquinolin-1-yl)(methyl)carbamoyl)-5,6-difluoro-1H-indol-1-yl)methyl)phosphate], with 10 nM; and `CN(C(=O)c1cnc(C(F)(F)F)c(Cl)c1)[C@@H]1COCc2[nH]c(=O)c3cc(F)c(F)cc3c21` [Compound 377, (S)-5-Chloro-N-(8,9-difluoro-6-oxo-1,4,5,6-tetrahydro-2H-pyrano[3,4-c]isoquinolin-1-yl)-N-methyl-6-(trifluoromethyl)nicotinamide], with 40 nM.
Then `CN(C(=O)c1cc2c(Br)c(Cl)ncc2[nH]1)[C@@H]1COCc2[nH]c(=O)c3cc(F)c(F)cc3c21` [Compound 384, (S)-4-Bromo-5-chloro-N-(8,9-difluoro-6-oxo-1,4,5,6-tetrahydro-2H-pyrano[3,4-c]isoquinolin-1-yl)-N-methyl-1H-pyrrolo[2,3-c]pyridine-2-carboxamide], with 20 nM; and `CN(C(=O)c1cc2c(C(F)F)cccn2c1)[C@@H]1COCc2[nH]c(=O)c3cc(F)c(F)cc3c21` [Compound 407, (S)-N-(8,9-difluoro-6-oxo-1,4,5,6-tetrahydro-2H-pyrano[3,4-c]isoquinolin-1-yl)-8-(difluoromethyl)-N-methylindolizine-2-carboxamide], with 10 nM; and `CN(C(=O)c1ccc2c(c1)CCC2)[C@@H]1COCc2[nH]c(=O)c3cc(F)c(F)cc3c21` [Compound 408, (S)-N-(8,9-Difluoro-6-oxo-1,4,5,6-tetrahydro-2H-pyrano[3,4-c]isoquinolin-1-yl)-N-methyl-2,3-dihydro-1H-indene-5-carboxamide], with 40 nM.
Then `CN(C(=O)c1ccc2ncoc2c1)[C@@H]1COCc2[nH]c(=O)c3cc(F)c(F)cc3c21` [Compound 409, (S)-N-(8,9-Difluoro-6-oxo-1,4,5,6-tetrahydro-2H-pyrano[3,4-c]isoquinolin-1-yl)-N-methylbenzo[d]oxazole-6-carboxamide], with 2300 nM; and `CN(C(=O)c1cc2c(Cl)nc(Cl)cc2[nH]1)[C@@H]1COCc2[nH]c(=O)c3cc(F)c(F)cc3c21` [Compound 410, (S)-4,6-Dichloro-N-(8,9-difluoro-6-oxo-1,4,5,6-tetrahydro-2H-pyrano[3,4-c]isoquinolin-1-yl)-N-methyl-1H-pyrrolo[3,2-c]pyridine-2-carboxamide], with 40 nM; and `CN(C(=O)c1cc2cc(F)c(F)cc2[nH]1)[C@@H]1COC(F)c2[nH]c(=O)c3cc(F)c(F)cc3c21` (stereo partly drawn) [Compound 411, 5,6-Difluoro-N-methyl-N-((1S)-4,8,9-trifluoro-6-oxo-1,4,5,6-tetrahydro-2H-pyrano[3,4-c]isoquinolin-1-yl)-1H-indole-2-carboxamide], with 10 nM.
As for `CN(C(=O)c1cnc(C(F)(F)F)c(F)c1)[C@@H]1COCc2[nH]c(=O)c3cc(F)c(F)cc3c21` [Compound 412, (S)-N-(8,9-Difluoro-6-oxo-1,4,5,6-tetrahydro-2H-pyrano[3,4-c]isoquinolin-1-yl)-5-fluoro-N-methyl-6-(trifluoromethyl)nicotinamide], the EC50 was determined as 30 nM.
Then `CN(C(=O)c1ccc2c(c1)c(Cl)nn2C)[C@@H]1COCc2[nH]c(=O)c3cc(F)c(F)cc3c21` [Compound 415, (S)-3-Chloro-N-(8,9-difluoro-6-oxo-1,4,5,6-tetrahydro-2H-pyrano[3,4-c]isoquinolin-1-yl)-N,1-dimethyl-1H-indazole-5-carboxamide], with 60 nM; and `CCn1nc(Cl)c2cc(C(=O)N(C)[C@@H]3COCc4[nH]c(=O)c5cc(F)c(F)cc5c43)ccc21` [Compound 416, (S)-3-Chloro-N-(8,9-difluoro-6-oxo-1,4,5,6-tetrahydro-2H-pyrano[3,4-c]isoquinolin-1-yl)-1-ethyl-N-methyl-1H-indazole-5-carboxamide], with 80 nM.
For `Cc1nn(C(F)F)c2ccc(C(=O)N(C)[C@@H]3COCc4[nH]c(=O)c5cc(F)c(F)cc5c43)cc12` [Compound 417, (S)-N-(8,9-Difluoro-6-oxo-1,4,5,6-tetrahydro-2H-pyrano[3,4-c]isoquinolin-1-yl)-1-(difluoromethyl)-N,3-dimethyl-1H-indazole-5-carboxamide] the value was 20 nM; for `CN(C(=O)c1ccc2ocnc2c1)[C@@H]1COCc2[nH]c(=O)c3cc(F)c(F)cc3c21` [Compound 426, (S)-N-(8,9-Difluoro-6-oxo-1,4,5,6-tetrahydro-2H-pyrano[3,4-c]isoquinolin-1-yl)-N-methylbenzo[d]oxazole-5-carboxamide], 90 nM.
Then `CN(C(=O)c1ccc2scnc2c1)[C@@H]1COCc2[nH]c(=O)c3cc(F)c(F)cc3c21` [Compound 427, (S)-N-(8,9-Difluoro-6-oxo-1,4,5,6-tetrahydro-2H-pyrano[3,4-c]isoquinolin-1-yl)-N-methylbenzo[d]thiazole-5-carboxamide], with 170 nM; and `CN(C(=O)c1ccc2ncsc2c1)[C@@H]1COCc2[nH]c(=O)c3cc(F)c(F)cc3c21` [Compound 428, (S)-N-(8,9-Difluoro-6-oxo-1,4,5,6-tetrahydro-2H-pyrano[3,4-c]isoquinolin-1-yl)-N-methylbenzo[d]thiazole-6-carboxamide], with 340 nM.
`CN(C(=O)c1ccc2[nH]ncc2c1)[C@@H]1COCc2[nH]c(=O)c3cc(F)c(F)cc3c21` [Compound 429, (S)-N-(8,9-Difluoro-6-oxo-1,4,5,6-tetrahydro-2H-pyrano[3,4-c]isoquinolin-1-yl)-N-methyl-1H-indazole-5-carboxamide]: the EC50 was found to be 980 nM.
For the compound `CN(C(=O)c1ccc2c(c1)c(C(F)F)nn2C)[C@@H]1COCc2[nH]c(=O)c3cc(F)c(F)cc3c21` [Compound 436, (S)-N-(8,9-Difluoro-6-oxo-1,4,5,6-tetrahydro-2H-pyrano[3,4-c]isoquinolin-1-yl)-3-(difluoromethyl)-N,1-dimethyl-1H-indazole-5-carboxamide], the EC50 turned out to be 100 nM.
Then `CN(C(=O)c1ccc2c(cnn2C(F)F)c1)[C@@H]1COCc2[nH]c(=O)c3cc(F)c(F)cc3c21` [Compound 437, (S)-N-(8,9-Difluoro-6-oxo-1,4,5,6-tetrahydro-2H-pyrano[3,4-c]isoquinolin-1-yl)-1-(difluoromethyl)-N-methyl-1H-indazole-5-carboxamide], with 5 nM; and `CN(C(=O)c1ccc2cn[nH]c2c1)[C@@H]1COCc2[nH]c(=O)c3cc(F)c(F)cc3c21` [Compound 450, (S)-N-(8,9-Difluoro-6-oxo-1,4,5,6-tetrahydro-2H-pyrano[3,4-c]isoquinolin-1-yl)-N-methyl-1H-indazole-6-carboxamide], with 110 nM; and `CN(C(=O)c1ccc2nc[nH]c2c1)[C@@H]1COCc2[nH]c(=O)c3cc(F)c(F)cc3c21` [Compound 451, (S)-N-(8,9-difluoro-6-oxo-1,4,5,6-tetrahydro-2H-pyrano[3,4-c]isoquinolin-1-yl)-N-methyl-1H-benzo[d]imidazole-6-carboxamide], with 12300 nM.
On to `CN(C(=O)c1cc2sc(C#N)cc2[nH]1)[C@@H]1COCc2[nH]c(=O)c3cc(F)c(F)cc3c21` [Compound 468], for which the half-maximal effective concentration (EC50) is 5 nM.
For `CN(C(=O)c1cc2sc(Cl)cc2[nH]1)[C@@H]1COC(=O)c2[nH]c(=O)c3cc(F)c(F)cc3c21` [Compound 477, (S)-2-Chloro-N-(8,9-difluoro-4,6-dioxo-1,4,5,6-tetrahydro-2H-pyrano[3,4-c]isoquinolin-1-yl)-N-methyl-4H-thieno[3,2-b]pyrrole-5-carboxamide] the value was 20 nM.
On to `CN(C(=O)c1cc2cc(F)c(C(F)F)cc2[nH]1)[C@@H]1COC(=O)c2[nH]c(=O)c3cc(F)c(F)cc3c21` [Compound 478, (S)-N-(8,9-Difluoro-4,6-dioxo-1,4,5,6-tetrahydro-2H-pyrano[3,4-c]isoquinolin-1-yl)-6-(difluoromethyl)-5-fluoro-N-methyl-1H-indole-2-carboxamide], for which the EC50 stood at 10 nM.

(Values after patent publication US20240228504A1, “SUBSTITUTED TRICYCLIC AMIDES, ANALOGUES THEREOF, AND METHODS USING SAME” (Arbutus Biopharma Corporation, priority 2020, published 2024).)
